Target: T1, recombinant alpha-glucosidase II (murine full-length glucosidase II) (Mus musculus, UniProt Q8BHN3)
T1 construct: made in house; host or cells: HEK-293T cells co-transduced with two BacMam viruses (75% alpha, 25% beta); secreted into the culture supernatant
T1 sequence (Q8BHN3 with tags, fused parts or gaps isoform Q8BHN3-2): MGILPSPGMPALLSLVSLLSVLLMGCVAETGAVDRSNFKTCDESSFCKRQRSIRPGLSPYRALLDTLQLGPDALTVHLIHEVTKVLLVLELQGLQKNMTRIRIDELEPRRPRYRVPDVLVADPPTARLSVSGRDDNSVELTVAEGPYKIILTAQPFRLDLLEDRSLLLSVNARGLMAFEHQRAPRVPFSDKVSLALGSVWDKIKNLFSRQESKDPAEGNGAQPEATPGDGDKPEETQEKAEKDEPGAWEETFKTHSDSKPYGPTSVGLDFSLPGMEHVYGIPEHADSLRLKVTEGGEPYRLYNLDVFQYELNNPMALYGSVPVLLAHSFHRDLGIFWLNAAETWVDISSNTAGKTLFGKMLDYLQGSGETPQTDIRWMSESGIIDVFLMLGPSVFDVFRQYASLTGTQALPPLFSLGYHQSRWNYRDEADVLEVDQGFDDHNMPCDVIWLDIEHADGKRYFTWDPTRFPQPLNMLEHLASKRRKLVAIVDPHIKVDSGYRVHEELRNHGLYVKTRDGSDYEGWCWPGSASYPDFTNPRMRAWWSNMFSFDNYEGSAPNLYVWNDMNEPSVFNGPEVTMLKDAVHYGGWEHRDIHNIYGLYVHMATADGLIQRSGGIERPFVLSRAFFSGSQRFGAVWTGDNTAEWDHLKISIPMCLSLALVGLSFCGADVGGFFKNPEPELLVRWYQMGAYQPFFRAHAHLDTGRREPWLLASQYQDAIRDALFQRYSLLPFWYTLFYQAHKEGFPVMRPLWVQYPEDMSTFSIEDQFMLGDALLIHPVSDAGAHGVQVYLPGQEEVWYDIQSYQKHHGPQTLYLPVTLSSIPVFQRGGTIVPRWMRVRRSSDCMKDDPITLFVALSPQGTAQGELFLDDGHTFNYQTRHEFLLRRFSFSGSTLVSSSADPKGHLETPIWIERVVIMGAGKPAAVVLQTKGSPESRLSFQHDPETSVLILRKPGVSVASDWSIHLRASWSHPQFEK
T1 sequence (O08795 with tags, fused parts or gaps partner limits assumed): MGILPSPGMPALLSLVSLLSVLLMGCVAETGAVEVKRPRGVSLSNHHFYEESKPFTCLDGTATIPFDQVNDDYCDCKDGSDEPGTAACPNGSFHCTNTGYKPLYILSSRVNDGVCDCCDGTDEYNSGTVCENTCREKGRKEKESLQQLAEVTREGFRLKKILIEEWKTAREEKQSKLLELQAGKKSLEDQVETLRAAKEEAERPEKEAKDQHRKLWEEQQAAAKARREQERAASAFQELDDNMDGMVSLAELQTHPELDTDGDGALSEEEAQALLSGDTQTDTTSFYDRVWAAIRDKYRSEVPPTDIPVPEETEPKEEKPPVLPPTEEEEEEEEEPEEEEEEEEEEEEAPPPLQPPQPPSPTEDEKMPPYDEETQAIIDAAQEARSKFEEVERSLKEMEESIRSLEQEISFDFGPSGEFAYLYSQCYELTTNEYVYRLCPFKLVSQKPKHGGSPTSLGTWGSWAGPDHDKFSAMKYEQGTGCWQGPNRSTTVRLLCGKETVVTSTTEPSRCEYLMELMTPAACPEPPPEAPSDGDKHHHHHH
Assay: Alpha-glucosidase II assay
Assay type: biochemical
Details: 4-methylumbelliferyl-alpha-D-pyranoside substrate, read-out: aGlc2 IC50
Description: Preparation of Murine Full-length Glucosidase II: Glucosidase is a heterodimeric protein consisting of alpha and beta subunits. […] A single construct was designed for each of the subunits for gene synthesis and cloning into Gateway entry vectors. The alpha subunit was appended with a Strep-affinity tag and the beta subunit was appended with a 6-His affinity tag. The entry vectors were cloned into Kemp Protein's BacMam Destination vector and the vectors were transformed into chemically competent DH10Bac E. coli cells to produce recombinant glucosidase II bacmids. Bacmid isolates for each of the subunits were obtained following two rounds of blue-white screening and they were transfected into Sf9 cells cultivated in serum-free medium (Thermo Fisher Scientific). MOI of 10 with a ratio of 75% alpha subunit and 25% beta subunit was selected for expression of glucosidase II. […] Productions and purifications of glucosidase II were carried out at scales ranging from 1-liter to 10-liters. […] In another example, production at the 10-liter scale was performed in stirred-tank bioreactors at 27° C. and 80 rpm with dissolved oxygen level maintained at 50% of oxygen in air and pH maintained between 7.0 and 7.2. For both subunits, the cells were transduced using a total MOI of 10 (75% alpha and 25% beta) and the culture supernatant was harvested at 96 hours post-transduction using centrifugation and filtration through a 0.2 micron filter.
The supernatant from a 10-liter culture was placed in a stir-jar and 25 mL of Nickel-SEPHAROSE Excel resin (GE) was added. The supernatant was stirred overnight at 25 rpm and 4° C. and the resin was collected into a column (26 mm×60 mm) and washed with 8 CV of 2×DPBS at pH 7.4. The glucosidase II protein was eluted using a linear gradient of 0-60% of 2×DPBS and 500 mM imidazole at pH 7.4. Fractions (10 mL) were collected and analyzed by SDS PAGE and Western Blot (reducing anti-His and anti-Strep). Fractions containing purified glucosidase II were pooled and concentrated for application to a SUPERDEX 200 (26 mm×600 mm) column (GE). The column buffer was PBS pH 7.2 and the concentrated eluate pool was loaded at a rate of 1 mL per minute. Fractions (3 mL) were collected and analyzed using SDS PAGE and Western Blot (reducing anti-His and anti-Strep). Fractions containing purified glucosidase II in PBS pH 7.2 were pooled and concentrated to 1 mg/mL. The final product was filter sterilized and stored at 4° C.
Alpha-glucosidase II Assay: The assay was performed by incubating recombinant enzyme alpha-glucosidase II for 60 minutes at 37° C. with multiple dilutions of test compounds. 4-methylumbelliferyl-alpha-D-pyranoside was then introduced as the substrate to the mixture. Fluorogenic 1,4-methyllumbelliferone was generated, and the reaction was stopped with the stop solution (0.5 M glycine, 0.3 M NaOH pH 10) after an incubation of 30 minutes at 37° C. […] Percent inhibition was then plotted as a function of concentration for each test compound.

| Structure (SMILES) | IC50 [nM] |
| --- | --- |
| N[C@H]1C[C@](O)(CO)[C@@H](O)[C@H](O)[C@H]1O [Valiolamine] | > 100000 |
| O=C(O)CCCCN[C@H]1C[C@](O)(CO)[C@@H](O)[C@H](O)[C@H]1O [Compound 11, 5-(((1S,2S,3R,4S,5S)-2,3,4,5-tetrahydroxy-5-(hydroxymethyl)cyclohexyl)amino)pentanoic acid] | > 100000 |
| O=[N+]([O-])c1cc(-n2cnnn2)ccc1NCCCCCCN[C@H]1C[C@](O)(CO)[C@@H](O)[C@H](O)[C@H]1O [Compound 4, (1S,2S,3R,4S,5S)-1-(hydroxymethyl)-5-((6-((2-nitro-4-(1H-tetrazol-1-yl)phenyl)amino)hexyl)amino)cyclohexane-1,2,3,4-tetraol] | 1420 |
| [N-]=[N+]=Nc1ccc(NCCCCCN[C@H]2C[C@](O)(CO)[C@@H](O)[C@H](O)[C@H]2O)c([N+](=O)[O-])c1 [Compound 9, (1S,2S,3R,4S,5S)-5-((5-((4-azido-2-nitrophenyl)amino)pentyl)amino)-1-(hydroxymethyl)cyclohexane-1,2,3,4-tetraol] | 27 |
| O=[N+]([O-])c1cc(-n2nccn2)ccc1NCCCCCCN[C@H]1C[C@](O)(CO)[C@@H](O)[C@H](O)[C@H]1O [Compound 5, (1S,2S,3R,4S,5S)-1-(hydroxymethyl)-5-((6-((2-nitro-4-(2H-1,2,3-triazol-2-yl)phenyl)amino)hexyl)amino)cyclohexane-1,2,3,4-tetraol] | < 1 |
| [N-]=[N+]=Nc1ccc(NCCOCCN[C@H]2C[C@](O)(CO)[C@@H](O)[C@H](O)[C@H]2O)c([N+](=O)[O-])c1 [Compound 10, (1S,2S,3R,4S,5S)-5-((2-(2-((4-azido-2-nitrophenyl)amino)ethoxy)ethyl)amino)-1-(hydroxymethyl)cyclohexane-1,2,3,4-tetraol] | 37000 |
| O=[N+]([O-])c1cc(-n2ccnn2)ccc1NCCCCCCN[C@H]1C[C@](O)(CO)[C@@H](O)[C@H](O)[C@H]1O [Compound 6, (1S,2S,3R,4S,5S)-1-(hydroxymethyl)-5-((6-((2-nitro-4-(1H-1,2,3-triazol-1-yl)phenyl)amino)hexyl)amino)cyclohexane-1,2,3,4-tetraol] | 15.5 |
| O=[N+]([O-])c1cc(-c2ncccn2)ccc1NCCCCCCN[C@H]1C[C@](O)(CO)[C@@H](O)[C@H](O)[C@H]1O [Compound 7, (1S,2S,3R,4S,5S)-1-(hydroxymethyl)-5-((6-((2-nitro-4-(pyrimidin-2-yl)phenyl)amino)hexyl)amino)cyclohexane-1,2,3,4-tetraol] | 1.1 |
| [N-]=[N+]=Nc1ccc(NCCCCN[C@H]2C[C@](O)(CO)[C@@H](O)[C@H](O)[C@H]2O)c([N+](=O)[O-])c1 [Compound 8, (1S,2S,3R,4S,5S)-5-((4-((4-azido-2-nitrophenyl)amino)butyl)amino)-1-(hydroxymethyl)cyclohexane-1,2,3,4-tetraol] | 1010 |
| COCCCCCCCCCN[C@H]1C[C@](O)(CO)[C@@H](O)[C@H](O)[C@H]1O [Compound 3, (1S,2S,3R,4S,5S)-1-(hydroxymethyl)-5-((9-methoxynonyl)amino)cyclohexane-1,2,3,4-tetraol] | 490 |
| [N-]=[N+]=Nc1ccc(NCCCCCCN[C@H]2C[C@](O)(CO)[C@@H](O)[C@H](O)[C@H]2O)c([N+](=O)[O-])c1 [Compound 2, (1S,2S,3R,4S,5S)-5-((6-((4-azido-2-nitrophenyl)amino)hexyl)amino)-1-(hydroxymethyl)cyclohexane-1,2,3,4-tetraol] | 33.7 |

From patent US12673924B2, “Valiolamine derivatives as glucosidase inhibitors” (Emergent Product Development Gaithersburg Inc., priority 2021, dated 2026)
